Measurements taken from PubChem BioAssay (NCI).
“And” between values parts separate entries of the source, which are not always exact repeats. Identical values can stand only once.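 96-well plates; 48 h exposure; 5 concentrations. Endpoints by linear interpolation between flanking doses. Not reached: highest tested concentration assigned. GI50 is the concentration that inhibits growth by half. TGI: concentration producing complete growth inhibition.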

Columns and labels:
Assay in all cases: DTP human tumour cell line panel, 48 h
MDA-MB-231 breast = test system: MDA-MB-231 breast
NCI/ADR-RES ovarian = test system: NCI/ADR-RES ovarian
DMS 273 small cell lung = test system: DMS 273 small cell lung
HT29 colon = test system: HT29 colon
HCT-15 colon = test system: HCT-15 colon
KM20L2 colon = test system: KM20L2 colon
M14 melanoma = test system: M14 melanoma
NCI-H522 lung = test system: NCI-H522 lung
DLD-1 colon = test system: DLD-1 colon
NCI-H23 lung = test system: NCI-H23 lung

Row | Structure (SMILES) | TGI (MDA-MB-231 breast) | TGI (NCI/ADR-RES ovarian) | TGI (DMS 273 small cell lung) | TGI (HT29 colon) | TGI (HCT-15 colon) | TGI (KM20L2 colon) | TGI (M14 melanoma) | TGI (NCI-H522 lung) | TGI (DLD-1 colon) | TGI (NCI-H23 lung) | GI50 (MDA-MB-231 breast) | GI50 (NCI/ADR-RES ovarian) | GI50 (DMS 273 small cell lung) | GI50 (HT29 colon) | GI50 (HCT-15 colon) | GI50 (KM20L2 colon) | GI50 (M14 melanoma) | GI50 (NCI-H522 lung) | GI50 (DLD-1 colon) | GI50 (NCI-H23 lung)
1 | O=C1C=C(NCCc2ccccc2)c2ccccc2C1=O | 42.8 µM | 23 µM | 7.55 µM | 7.27 µM | 3.6 µM | 18.7 µM | 2.99 µM | 4.41 µM | 21.9 µM | 5.67 µM | – | – | – | – | – | – | – | – | – | –
2 | Cc1c(-c2ccc(-c3ccccc3F)cc2)nc2ccc(F)cc2c1C(=O)O | 146 µM and 250 µM | 170 µM and 377 µM | 29.3 µM and 89.9 µM | 142 µM and 235 µM | 114 µM and 153 µM | 170 µM and 171 µM | 111 µM and 219 µM | 93.8 µM and 434 µM | 146 µM and 1040 µM | 173 µM and 529 µM | 89.8 µM and 30.5 µM | 8.96 µM and 17.2 µM | 0.5 µM | 0.639 µM and 0.5 µM | 0.0764 µM and 0.5 µM | 1.12 µM | 6.76 µM and 24.4 µM | 9.89 µM and 67.3 µM | 1.58 µM | 17.4 µM and 35.1 µM
3 | CC(C)(C1=NC(C(C)(C)C)CO1)C1=N[C@@H](C(C)(C)C)CO1 (stereo partly drawn) | – | – | > 100 µM | > 100 µM | > 100 µM | > 100 µM | > 100 µM | > 100 µM | > 100 µM | > 100 µM | – | – | – | – | – | – | – | – | – | –
4 | Cc1cccc(C=NC23CC4CC(CC(C4)C2)C3)c1 | – | – | > 100 µM | > 100 µM | > 100 µM | > 100 µM | > 100 µM | > 100 µM | > 100 µM | > 100 µM | – | – | – | – | – | – | – | – | – | –
5 | COC(=O)CCC(NC(=S)N/N=C(\C)c1cccs1)C(=O)OC (stereo not drawn) | – | – | > 100 µM | > 100 µM | > 100 µM | > 100 µM | > 100 µM | > 100 µM | > 100 µM | > 100 µM | – | – | – | – | – | – | – | – | – | –
6 | O=C(NCCCN1CCN(CCCNC(=O)Nc2cc(Cl)ccc2Cl)CC1)Nc1cc(Cl)ccc1Cl | – | – | > 100 µM | > 100 µM | > 100 µM | > 100 µM | > 100 µM | > 100 µM | > 100 µM | > 100 µM | – | – | – | – | – | – | – | – | – | –
7 | c1ccc(N2CCN(CCN3CCc4c([nH]c5ccccc45)C3c3cccnc3)CC2)cc1 (stereo not drawn) | – | – | > 100 µM | > 100 µM | > 100 µM | > 100 µM | > 100 µM | > 100 µM | > 100 µM | > 100 µM | – | – | – | – | – | – | – | – | – | –
8 | CCOC(=N)CC(=O)Nc1ccccc1CC | – | – | > 100 µM | > 100 µM | > 100 µM | > 100 µM | > 100 µM | > 100 µM | > 100 µM | > 100 µM | – | – | – | – | – | – | – | – | – | –
